{"source": "BindingDB's records for patent US11802108", "about": "(The University Court of The University of Edinburgh, 2023)", "target": "Peptidyl-prolyl cis-trans isomerase A (Homo sapiens, UniProt P62937)", "sequence (P62937 whole entry)": "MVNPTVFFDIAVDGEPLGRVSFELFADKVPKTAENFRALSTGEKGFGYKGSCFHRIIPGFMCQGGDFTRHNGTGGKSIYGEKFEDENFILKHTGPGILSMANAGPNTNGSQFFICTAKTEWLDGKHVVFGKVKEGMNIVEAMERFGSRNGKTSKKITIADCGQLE", "experiment": "Isothermal Titration Calorimetry (ITC)", "method": "The buffer used in the titrations of the compounds belonging to the ester series was 50 mM phosphate buffer, pH 6.5 and the concentration of DMSO was 2% v/v for all the compounds, unless otherwise stated in Table 51. […] Control experiments were performed, where each compound was titrated into buffer and when small amount of heat was detected due to heat of dilution, it was subtracted when processing the data using a linear fit method. In all cases the first injection was omitted from the data processing. All data were analysed using the MicroCal PEAQ-ITC Analysis software."}
{"smiles": "CCOC(=O)CNC(=O)N(Cc1ccc(N)cc1)Cc1cn(CC(=O)OCC)nn1", "note": "[US11802108, Compound 20]", "values": [{"measurement": "Kd", "value": "> 600", "unit": "µM"}]}
